Data taken from article PMC5564600 (Oncotarget, 2017).

Experiments:
Assay in all cases: biochemical
Type in all cases: binding
[1] = target: T1, panel of 442 kinases (Homo sapiens, UniProt Q16832); conditions: DDR2; for remaining activity at 1 µM: read-out: % of control at 1 µM
T1 construct: purchased Ambit Biosciences (scanMAXX KINOMEscan)
T1 sequence (Q16832 22-855): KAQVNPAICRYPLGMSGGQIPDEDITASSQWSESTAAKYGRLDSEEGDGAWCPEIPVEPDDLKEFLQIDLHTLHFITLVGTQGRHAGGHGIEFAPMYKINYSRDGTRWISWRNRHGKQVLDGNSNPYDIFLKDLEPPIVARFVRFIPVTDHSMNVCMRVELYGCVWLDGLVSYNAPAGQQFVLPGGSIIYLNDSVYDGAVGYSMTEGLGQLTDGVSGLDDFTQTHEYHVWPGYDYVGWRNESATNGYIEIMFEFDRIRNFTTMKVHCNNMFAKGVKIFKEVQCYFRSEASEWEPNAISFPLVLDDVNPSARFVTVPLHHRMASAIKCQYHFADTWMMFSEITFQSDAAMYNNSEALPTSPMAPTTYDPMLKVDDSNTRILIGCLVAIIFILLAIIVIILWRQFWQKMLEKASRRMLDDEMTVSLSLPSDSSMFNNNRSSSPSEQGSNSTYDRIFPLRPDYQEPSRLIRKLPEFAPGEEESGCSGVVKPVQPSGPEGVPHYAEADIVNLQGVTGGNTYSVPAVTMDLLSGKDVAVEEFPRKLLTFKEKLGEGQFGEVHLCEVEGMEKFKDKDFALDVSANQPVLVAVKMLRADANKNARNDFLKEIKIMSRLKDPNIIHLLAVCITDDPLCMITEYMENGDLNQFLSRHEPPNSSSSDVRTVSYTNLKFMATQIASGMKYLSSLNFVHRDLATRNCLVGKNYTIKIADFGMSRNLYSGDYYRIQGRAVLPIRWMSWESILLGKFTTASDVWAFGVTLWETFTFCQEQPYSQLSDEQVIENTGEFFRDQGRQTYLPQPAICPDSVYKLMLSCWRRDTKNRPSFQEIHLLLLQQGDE

[2] = target: T2, panel of 442 kinases (Homo sapiens, UniProt Q9NRH2); conditions: kinase SNRK; for remaining activity at 1 µM: read-out: SNRK (% of control at 1 µM)
T2 construct: purchased Ambit Biosciences (scanMAXX KINOMEscan)
T2 sequence (Q9NRH2 1-765): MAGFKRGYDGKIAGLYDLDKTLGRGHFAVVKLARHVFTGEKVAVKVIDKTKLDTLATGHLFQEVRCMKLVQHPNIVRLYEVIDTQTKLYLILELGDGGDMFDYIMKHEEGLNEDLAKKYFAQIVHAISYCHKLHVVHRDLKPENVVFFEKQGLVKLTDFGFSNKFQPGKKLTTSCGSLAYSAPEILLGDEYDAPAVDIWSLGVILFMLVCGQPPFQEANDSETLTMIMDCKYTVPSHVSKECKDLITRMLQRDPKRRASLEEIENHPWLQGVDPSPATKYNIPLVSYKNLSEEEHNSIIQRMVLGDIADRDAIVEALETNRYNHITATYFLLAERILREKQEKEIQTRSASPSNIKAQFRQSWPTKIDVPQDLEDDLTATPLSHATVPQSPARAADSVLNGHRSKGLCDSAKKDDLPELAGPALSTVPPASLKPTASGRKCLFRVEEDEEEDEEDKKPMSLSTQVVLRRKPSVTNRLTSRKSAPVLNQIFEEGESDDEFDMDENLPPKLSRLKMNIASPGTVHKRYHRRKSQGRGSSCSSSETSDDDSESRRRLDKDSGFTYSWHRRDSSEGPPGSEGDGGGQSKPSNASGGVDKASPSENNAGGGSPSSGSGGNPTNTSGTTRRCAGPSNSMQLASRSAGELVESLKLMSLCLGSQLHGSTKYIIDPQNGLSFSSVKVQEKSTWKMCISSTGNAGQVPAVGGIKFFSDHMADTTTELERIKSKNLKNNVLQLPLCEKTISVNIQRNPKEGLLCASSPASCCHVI

[3] = target: T3, panel of 442 kinases (Homo sapiens, UniProt P14616); conditions: kinase INSRR; for remaining activity at 1 µM: read-out: % of control at 1 µM
T3 construct: purchased Ambit Biosciences (scanMAXX KINOMEscan)
T3 sequence (P14616 27-1297): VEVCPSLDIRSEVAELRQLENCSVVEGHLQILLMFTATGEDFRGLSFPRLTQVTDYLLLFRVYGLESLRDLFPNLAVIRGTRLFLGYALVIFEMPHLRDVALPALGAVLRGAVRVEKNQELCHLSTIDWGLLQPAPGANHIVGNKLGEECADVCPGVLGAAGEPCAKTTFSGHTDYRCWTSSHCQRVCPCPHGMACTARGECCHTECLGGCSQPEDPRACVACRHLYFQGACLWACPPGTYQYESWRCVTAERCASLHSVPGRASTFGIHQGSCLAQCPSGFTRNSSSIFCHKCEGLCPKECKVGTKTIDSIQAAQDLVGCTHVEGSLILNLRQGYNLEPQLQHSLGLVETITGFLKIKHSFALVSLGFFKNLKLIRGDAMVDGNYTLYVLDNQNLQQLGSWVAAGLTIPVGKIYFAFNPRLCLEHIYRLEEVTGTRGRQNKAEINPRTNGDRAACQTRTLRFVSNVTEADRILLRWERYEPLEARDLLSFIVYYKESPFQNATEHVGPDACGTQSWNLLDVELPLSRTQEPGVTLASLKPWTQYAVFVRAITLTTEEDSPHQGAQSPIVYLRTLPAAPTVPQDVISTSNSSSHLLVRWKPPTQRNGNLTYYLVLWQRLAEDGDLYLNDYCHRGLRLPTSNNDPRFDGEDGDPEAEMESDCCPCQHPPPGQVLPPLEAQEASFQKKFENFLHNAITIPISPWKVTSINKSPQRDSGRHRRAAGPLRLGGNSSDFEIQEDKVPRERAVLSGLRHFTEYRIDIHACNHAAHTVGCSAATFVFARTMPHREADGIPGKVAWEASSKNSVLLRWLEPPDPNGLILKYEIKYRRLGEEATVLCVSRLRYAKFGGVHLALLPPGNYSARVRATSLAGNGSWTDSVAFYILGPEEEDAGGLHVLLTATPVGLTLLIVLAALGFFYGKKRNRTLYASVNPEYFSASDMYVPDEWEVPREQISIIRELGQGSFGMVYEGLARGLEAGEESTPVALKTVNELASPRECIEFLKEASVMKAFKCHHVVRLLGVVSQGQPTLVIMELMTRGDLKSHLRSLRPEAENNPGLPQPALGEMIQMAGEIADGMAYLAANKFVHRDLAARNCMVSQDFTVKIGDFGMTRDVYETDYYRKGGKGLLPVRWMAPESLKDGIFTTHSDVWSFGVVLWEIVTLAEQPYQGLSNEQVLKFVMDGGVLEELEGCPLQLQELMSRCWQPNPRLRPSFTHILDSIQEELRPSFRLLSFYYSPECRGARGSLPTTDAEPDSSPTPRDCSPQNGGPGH

[4] = target: T4, panel of 442 kinases (Homo sapiens, UniProt P49841); conditions: kinase GSK3B; for remaining activity at 1 µM: read-out: % of control at 1 µM
T4 construct: purchased Ambit Biosciences (scanMAXX KINOMEscan)
T4 sequence (P49841 whole entry): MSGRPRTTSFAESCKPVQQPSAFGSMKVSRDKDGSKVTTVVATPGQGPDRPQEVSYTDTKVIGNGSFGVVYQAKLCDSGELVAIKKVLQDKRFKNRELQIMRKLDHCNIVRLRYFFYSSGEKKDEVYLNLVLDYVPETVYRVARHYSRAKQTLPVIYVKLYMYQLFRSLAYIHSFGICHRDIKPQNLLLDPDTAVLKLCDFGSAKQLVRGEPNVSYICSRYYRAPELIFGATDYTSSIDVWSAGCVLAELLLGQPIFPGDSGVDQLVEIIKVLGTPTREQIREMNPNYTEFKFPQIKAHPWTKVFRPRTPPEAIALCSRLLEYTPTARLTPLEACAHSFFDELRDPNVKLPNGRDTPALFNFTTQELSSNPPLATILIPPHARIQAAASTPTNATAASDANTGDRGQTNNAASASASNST

[5] = target: T5, panel of 442 kinases (Homo sapiens, UniProt Q6P3R8); conditions: kinase NEK5; for remaining activity at 1 µM: read-out: % of control at 1 µM
T5 construct: purchased Ambit Biosciences (scanMAXX KINOMEscan)
T5 sequence (Q6P3R8 1-708): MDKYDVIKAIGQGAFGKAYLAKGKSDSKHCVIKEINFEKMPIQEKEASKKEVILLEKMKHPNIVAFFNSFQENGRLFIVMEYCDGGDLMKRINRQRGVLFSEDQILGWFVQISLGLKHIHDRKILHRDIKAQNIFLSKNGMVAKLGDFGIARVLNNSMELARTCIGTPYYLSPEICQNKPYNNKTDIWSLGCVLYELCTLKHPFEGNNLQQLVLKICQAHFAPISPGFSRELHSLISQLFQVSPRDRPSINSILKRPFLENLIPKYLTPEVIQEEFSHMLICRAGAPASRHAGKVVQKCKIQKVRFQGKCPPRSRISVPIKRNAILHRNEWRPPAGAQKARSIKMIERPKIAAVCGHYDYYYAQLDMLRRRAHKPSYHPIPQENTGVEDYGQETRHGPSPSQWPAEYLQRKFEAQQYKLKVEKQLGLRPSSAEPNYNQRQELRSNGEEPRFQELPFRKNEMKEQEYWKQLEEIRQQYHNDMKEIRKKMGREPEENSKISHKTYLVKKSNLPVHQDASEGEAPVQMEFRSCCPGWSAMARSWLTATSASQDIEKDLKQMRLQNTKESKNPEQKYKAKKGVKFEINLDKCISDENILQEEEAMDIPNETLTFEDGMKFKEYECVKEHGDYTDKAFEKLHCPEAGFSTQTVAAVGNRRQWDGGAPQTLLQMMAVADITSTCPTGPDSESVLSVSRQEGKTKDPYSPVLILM

[6] = target: T6, panel of 442 kinases (Homo sapiens, UniProt Q9NYL2); conditions: kinase ZAK; for remaining activity at 1 µM: read-out: ZAK (% of control at 1 µM)
T6 construct: purchased Ambit Biosciences (scanMAXX KINOMEscan)
T6 sequence (Q9NYL2 whole entry): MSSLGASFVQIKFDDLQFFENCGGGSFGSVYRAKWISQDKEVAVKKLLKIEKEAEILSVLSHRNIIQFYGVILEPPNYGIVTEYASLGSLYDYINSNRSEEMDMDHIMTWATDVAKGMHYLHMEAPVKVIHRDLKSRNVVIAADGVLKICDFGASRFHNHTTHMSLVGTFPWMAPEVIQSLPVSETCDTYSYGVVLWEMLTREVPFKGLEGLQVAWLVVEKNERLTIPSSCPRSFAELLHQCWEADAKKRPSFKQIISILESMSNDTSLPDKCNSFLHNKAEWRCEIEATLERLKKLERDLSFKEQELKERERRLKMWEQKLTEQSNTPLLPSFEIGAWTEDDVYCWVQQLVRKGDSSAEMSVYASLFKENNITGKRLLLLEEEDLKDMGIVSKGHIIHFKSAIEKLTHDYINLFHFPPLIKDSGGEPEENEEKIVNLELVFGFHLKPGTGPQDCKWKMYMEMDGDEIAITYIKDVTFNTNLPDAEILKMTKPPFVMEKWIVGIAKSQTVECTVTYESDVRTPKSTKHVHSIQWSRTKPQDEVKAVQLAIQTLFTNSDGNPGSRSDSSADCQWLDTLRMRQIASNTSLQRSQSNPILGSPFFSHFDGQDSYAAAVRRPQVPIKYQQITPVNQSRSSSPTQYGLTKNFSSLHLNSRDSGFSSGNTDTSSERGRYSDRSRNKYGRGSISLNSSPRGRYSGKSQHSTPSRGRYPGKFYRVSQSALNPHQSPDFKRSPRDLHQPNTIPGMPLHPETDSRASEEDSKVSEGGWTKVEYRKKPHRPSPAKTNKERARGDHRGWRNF

[7] = target: T7, panel of 442 kinases (Homo sapiens, UniProt P06239); conditions: kinase LCK; for remaining activity at 1 µM: read-out: % of control at 1 µM
T7 construct: purchased Ambit Biosciences (scanMAXX KINOMEscan)
T7 sequence (P06239 whole entry): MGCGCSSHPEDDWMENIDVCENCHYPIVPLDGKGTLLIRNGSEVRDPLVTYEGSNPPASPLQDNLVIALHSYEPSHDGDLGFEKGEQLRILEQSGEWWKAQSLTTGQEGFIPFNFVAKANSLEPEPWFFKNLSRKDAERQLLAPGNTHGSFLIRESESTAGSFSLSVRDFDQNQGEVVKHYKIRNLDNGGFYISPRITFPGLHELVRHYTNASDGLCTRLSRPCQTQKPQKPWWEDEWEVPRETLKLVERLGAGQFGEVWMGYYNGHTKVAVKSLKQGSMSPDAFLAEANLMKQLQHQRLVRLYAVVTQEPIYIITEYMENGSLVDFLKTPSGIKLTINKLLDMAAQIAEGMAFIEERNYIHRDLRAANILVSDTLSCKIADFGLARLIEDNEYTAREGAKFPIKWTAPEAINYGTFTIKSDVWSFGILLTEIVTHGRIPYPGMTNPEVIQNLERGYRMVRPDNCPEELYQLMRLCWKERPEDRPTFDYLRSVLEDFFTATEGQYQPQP

[8] = 10 µM, read-out: % of control at 10 µM

**Q.** How did the remaining activity at 1 µM [1] turn out when `Nc1cc(C(F)(F)F)c(-c2cc(N3CCOCC3)nc(N3CCOCC3)n2)cn1` [Buparlisib] was run?
**A.** Its remaining activity at 1 µM is 96%.

**Q.** And the remaining activity at 10 µM [1, 8]?
**A.** Its remaining activity at 10 µM is 84%.

**Q.** And the remaining activity at 1 µM [2]?
**A.** The remaining activity at 1 µM was 90%.

**Q.** What about the remaining activity at 10 µM ([2]; 10 µM, read-out: SNRK (% of control at 10 µM)) of the same compound?
**A.** Its remaining activity at 10 µM is 100%.

**Q.** What about the remaining activity at 1 µM [3] of the same compound?
**A.** The remaining activity at 1 µM was 100%.

**Q.** And the remaining activity at 10 µM [3, 8]?
**A.** The remaining activity at 10 µM was 100%.

**Q.** What about the remaining activity at 1 µM [4] of the same compound?
**A.** The remaining activity at 1 µM was 86%.

**Q.** And the remaining activity at 10 µM [4, 8]?
**A.** Its remaining activity at 10 µM is 100%.

**Q.** What about the remaining activity at 1 µM [5] of the same compound?
**A.** Its remaining activity at 1 µM is 100%.

**Q.** And the remaining activity at 10 µM [5, 8]?
**A.** The remaining activity at 10 µM was 88%.

**Q.** What about the remaining activity at 1 µM [6] of the same compound?
**A.** The remaining activity at 1 µM was 85%.

**Q.** And the remaining activity at 10 µM ([6]; 10 µM, read-out: ZAK (% of control at 10 µM))?
**A.** The remaining activity at 10 µM was 90%.

**Q.** And the remaining activity at 1 µM [7]?
**A.** Its remaining activity at 1 µM is 100%.

**Q.** What about the remaining activity at 10 µM [7, 8] of the same compound?
**A.** The remaining activity at 10 µM was 100%.

**Q.** Which results are given for `COc1ncc(-c2ccc3nccc(-c4ccnnc4)c3c2)cc1NS(=O)(=O)c1ccc(F)cc1F` [Omipalisib]?
**A.** remaining activity at 1 µM [1]: 100%; remaining activity at 1 µM [2]: 88%; remaining activity at 1 µM [3]: 93%; remaining activity at 1 µM [4]: 89%; remaining activity at 1 µM [5]: 100%; remaining activity at 1 µM [6]: 81%; remaining activity at 1 µM [7]: 100%

**Q.** How did the remaining activity at 1 µM [1] turn out when `FC(F)c1nc2ccccc2n1-c1nc(N2CCOCC2)nc(N2CCOCC2)n1` [ZSTK474, 2-(difluoromethyl)-1-[4,6-di(4-morpholinyl)-1,3,5-triazin-2-yl]-1H-benzimidazole] was run?
**A.** The remaining activity at 1 µM was 100%.

**Q.** What about the remaining activity at 1 µM [2] of the same compound?
**A.** Its remaining activity at 1 µM is 100%.

**Q.** What about the remaining activity at 1 µM [3] of the same compound?
**A.** The remaining activity at 1 µM was 88%.

**Q.** What about the remaining activity at 1 µM [4] of the same compound?
**A.** Its remaining activity at 1 µM is 91%.

**Q.** And the remaining activity at 1 µM [5]?
**A.** The remaining activity at 1 µM was 89%.

**Q.** What about the remaining activity at 1 µM [6] of the same compound?
**A.** Its remaining activity at 1 µM is 92%.

**Q.** And the remaining activity at 1 µM [7]?
**A.** Its remaining activity at 1 µM is 100%.

**Q.** How did the remaining activity at 1 µM [1] turn out when `Cn1c(=O)n(-c2ccc(C(C)(C)C#N)cc2)c2c3cc(-c4cnc5ccccc5c4)ccc3ncc21` [Dactolisib, 2-methyl-2-[4-(3-methyl-2-oxo-8-quinolin-3-yl-2,3-dihydroimidazo[4,5-c]quinolin-1-yl)-phenyl] propionitrile] was run?
**A.** Its remaining activity at 1 µM is 97%.

**Q.** And the remaining activity at 1 µM [2]?
**A.** The remaining activity at 1 µM was 71%.

**Q.** What about the remaining activity at 1 µM [3] of the same compound?
**A.** Its remaining activity at 1 µM is 100%.

**Q.** And the remaining activity at 1 µM [4]?
**A.** Its remaining activity at 1 µM is 100%.

**Q.** And the remaining activity at 1 µM [5]?
**A.** The remaining activity at 1 µM was 62%.

**Q.** And the remaining activity at 1 µM [6]?
**A.** The remaining activity at 1 µM was 55%.

**Q.** And the remaining activity at 1 µM [7]?
**A.** Its remaining activity at 1 µM is 88%.
